Assay results taken from article PMC6675714 (Cancer Medicine, 2019).
“Also recorded” adds a separate entry of the source.

Key:
[1] = Histopathology of organs and tissues after the trial; format: in vivo, NOD.CB17‐Prkdc scid/J mice; design: key to Histopathological finding: Lungs / Histopathological finding: Thymus / Histopathological finding: Kidneys / Histopathological finding: Gallbladder / Histopathological finding: Stomach / Histopathological finding: Cecum / Histopathological finding: Colon / Histopathological finding: Mesenteric lymph node / Histopathological finding: Salivary glands / Histopathological finding: Submandibular lymph node / Histopathological finding: Uterus / Histopathological finding: Cervix / Histopathological finding: Vagina / Histopathological finding: Testes/epididymis / Histopathological finding: Prostate / Histopathological finding: Seminal vesicles / Histopathological finding: Urinary bladder / Histopathological finding: Adrenals / Histopathological finding: Ovaries / Histopathological finding: Oviducts / Histopathological finding: Trachea / Histopathological finding: Esophagus / Histopathological finding: Thyroid / Histopathological finding: Parathyroid / Histopathological finding: Mammary glands / Histopathological finding: Bones (femur, tibia, sternum, vertebrae) / Histopathological finding: Stifle joint / Histopathological finding: Skeletral muscles (hind limb, spine) / Histopathological finding: Nerves (hind limb, spine) / Histopathological finding: Spinal cord / Histopathological finding: Oral cavity / Histopathological finding: Teeth / Histopathological finding: Nasal cavity / Histopathological finding: Eyes / Histopathological finding: Harderian gland / Histopathological finding: Bones (skull) / Histopathological finding: Pituitary / Histopathological finding: Brain / Histopathological finding: Ears / Histopathological finding: Heart: N: Normal
Excerpt: At the end of the intervention trial, female and male NOD.CB17‐Prkdc scid/J mice bearing subcutaneous Caki‐1 tumors were euthanized, blood was collected by intracardiac puncture and the carcasses were perfused with 4% PFA. Lung, kidney, heart, spleen, lymphatic tissue were collected, mounted in paraffin, sectioned and stained by Hemotoxilyn & Eosin. Samples were imaged at 20× under light microscope for analysis.

[2] = system: Caki‐1 xenograft tumors; assay: Protein expression in tumor lysates (Proteome Profiler arrays); format: in vivo, NOD.CB17‐Prkdc SCID/J mice; settings: tumor lysate, 21‐day trial, vs vehicle
Experimental: Whole tumors were extracted at the trial endpoint and lysed. Before application to the array, protein concentration was determined by BCA. Then 150 µg of lysate was incubated for 24 hours with the Proteome Profiler Human XL Oncology Array (ARY026, R&D Systems) and Human Cell Stress Array (ARY018, R&D Systems). The relative expression levels of the proteases were determined according to the manufacturer's protocol, and signal intensities were compared using HLImage^++ software.

[3] = Body and organ weights at necropsy after the trial; format: in vivo, NOD.CB17‐Prkdc scid/J mice
[4] = system: Caki‐1 xenograft tumors; assay: Cell proliferation (Ki67) and apoptosis (cleaved caspase 3) in tumor sections; format: in vivo, NOD.CB17‐Prkdc SCID/J mice; settings: tumors at 21‐day trial endpoint
Experimental: Tissue sections were prepared by embedding in OCT (Thermo Fisher Scientific, Waltham, MA) followed by freezing at − 80°C. Vessel leakiness was evaluated following tail‐vein injection of 100 μL of Dextran Texas Red (Invitrogen). Vessel integrity was assessed after tail‐vein injection of 50 μL of lectin labelled with FITC (Vector Labs, Burlingame, CA). Apoptotic cells were visualized using an anti‐rabbit cleaved caspase 3 primary antibody (Cell Signaling Technology, Danvers, MA) and an goat‐anti‐rabbit Alexa Fluor 594 secondary antibody (Cell Signaling Technology); proliferating cells were visualized using an anti‐mouse Ki67 primary antibody (Cell Signaling Technology) and an goat‐anti‐mouse Alexa Fluor 488 secondary antibody (Cell Signaling Technology); DAPI containing ProLong Gold Antifade Mounting Medium (Cell Signaling Technology) was used to visualize the nuclei and mount the slide.
For all histological analyses, tumors from treated mice were compared to those of the vehicle control of the intervention trial. Samples from 4 mice per treatment group were analyzed. Stained samples were imaged at 20× magnification (ZEISS LSM 700). Cell proliferation and apoptosis were quantified one channel at a time using ImageJ (NIH, open access software) and were calculated as the percentage of Ki67 positive or cleaved caspase 3 positive cells per DAPI positive cells per field of view.

[5] = 21 day course once/72h, mean and SEM, n = 3
[6] = Supplementary Table 3, end of trial

Substance: [Cl2(p‐cymene)Ru(μ‐dppm)Au(IMes)]ClO4 [RANCE‐1]
- Histological changes in liver, spleen, or kidney tissue ([1]; H&E, end of the 21 day efficacy trial): does not induce histological changes
- Histopathological finding: Adrenals ([1]; end of 21 day trial): N
- Histopathological finding: Bone marrow (femur, tibia, sternum, vertebrae) ([1]; end of 21 day trial): Moderate diffuse granulocytic hyperplasia; Moderate diffused Erythroid hypoplasia.
- Histopathological finding: Bones (femur, tibia, sternum, vertebrae) ([1]; end of 21 day trial): N
- Histopathological finding: Bones (skull) ([1]; end of 21 day trial): N
- Histopathological finding: Brain ([1]; end of 21 day trial): N
- Histopathological finding: Cecum ([1]; end of 21 day trial): N
- Histopathological finding: Cervix ([1]; end of 21 day trial): N
- Histopathological finding: Colon ([1]; end of 21 day trial): N
- Histopathological finding: Duodenum, jejunum, ileum ([1]; end of 21 day trial): Mild peritonitis and serositis, neutrophilic and histiocytic, multifocal.
- Histopathological finding: Ears ([1]; end of 21 day trial): N
- Histopathological finding: Esophagus ([1]; end of 21 day trial): N
- Histopathological finding: Eyes ([1]; end of 21 day trial): N
- Histopathological finding: Gallbladder ([1]; end of 21 day trial): N
- Histopathological finding: Harderian gland ([1]; end of 21 day trial): N
- Histopathological finding: Heart ([1]; end of 21 day trial): N
- Histopathological finding: Kidneys ([1]; end of 21 day trial): N
- Histopathological finding: Liver ([1]; end of 21 day trial): Minimal extramedullary hematopoiesis. Minimal hepatocyte hypertrophy. Mild vacuolar change (microvesicular)
- Histopathological finding: Lungs ([1]; end of 21 day trial): N
- Histopathological finding: Mammary glands ([1]; end of 21 day trial): N
- Histopathological finding: Mesenteric lymph node ([1]; end of 21 day trial): N
- Histopathological finding: Nasal cavity ([1]; end of 21 day trial): N
- Histopathological finding: Nerves (hind limb, spine) ([1]; end of 21 day trial): N
- Histopathological finding: Oral cavity ([1]; end of 21 day trial): N
- Histopathological finding: Ovaries ([1]; end of 21 day trial): N
- Histopathological finding: Oviducts ([1]; end of 21 day trial): N
- Histopathological finding: Pancreas ([1]; end of 21 day trial): Minimal peritonitis, neutrophilic and histiocytic, multifocal
- Histopathological finding: Parathyroid ([1]; end of 21 day trial): N
- Histopathological finding: Pituitary ([1]; end of 21 day trial): N
- Histopathological finding: Prostate ([1]; end of 21 day trial): N
- Histopathological finding: Salivary glands ([1]; end of 21 day trial): N
- Histopathological finding: Seminal vesicles ([1]; end of 21 day trial): N
- Histopathological finding: Skeletral muscles (hind limb, spine) ([1]; end of 21 day trial): N
- Histopathological finding: Spinal cord ([1]; end of 21 day trial): N
- Histopathological finding: Spleen ([1]; end of 21 day trial): Mild increase in extramedullary hematopoiesis with granulocyte hyperplasia.
- Histopathological finding: Stifle joint ([1]; end of 21 day trial): N
- Histopathological finding: Stomach ([1]; end of 21 day trial): N
- Histopathological finding: Submandibular lymph node ([1]; end of 21 day trial): N
- Histopathological finding: Teeth ([1]; end of 21 day trial): N
- Histopathological finding: Testes/epididymis ([1]; end of 21 day trial): N
- Histopathological finding: Thymus ([1]; end of 21 day trial): N
- Histopathological finding: Thyroid ([1]; end of 21 day trial): N
- Histopathological finding: Trachea ([1]; end of 21 day trial): N
- Histopathological finding: Urinary bladder ([1]; end of 21 day trial): N
- Histopathological finding: Uterus ([1]; end of 21 day trial): N
- Histopathological finding: Vagina ([1]; end of 21 day trial): N
- Adverse effects / pathological complications on histological evaluation ([1]; forty‐seven organ and tissue types, after 21 days of treatment): no signs of pathological complications; also recorded: no significant adverse effects
- CCL7 and CCL8 levels [2]: decrease
- Expression of CapG protein [2]: suppressed
- Expression of HIF‐1a, ICAM, VE‐Cadherin, and VCAM‐1 [2]: significantly decreased
- Expression of growth factors VEGF, PDGF, FGF, EGFR, and HGRF [2]: Significant reduction; also recorded: decrease
- Expression of immune factors IL‐2R and GM‐CSF [2]: increase
- M‐CSF expression [2]: increase
- Prometastatic factors CtsB, CtsS, FoxC2, MMP‐2, MMP‐3, MMP‐8, ADAM8, and ADAMP9 [2]: significant decrease
- Average weight: Average Kidney [3, 5]: 0.17 ± 0.06 g
- Average weight: Body [3, 5]: 21.31 ± 5.1 g
- Average weight: Heart [3, 5]: 0.11 ± 0.05 g
- Average weight: Liver [3, 5]: 1.15 ± 0.37 g
- Average weight: Spleen [3, 5]: 0.04 ± 0.017 g
- Body weight [3, 6]: 18.731 g
- Heart weight [3, 6]: 0.078 g
- Left Kidney weight [3, 6]: 0.148 g
- Liver weight [3, 6]: 0.974 g
- Right Kidney weight [3, 6]: 0.140 g
- Spleen weight [3, 6]: 0.035 g
- Total body weight or organ weight, treated vs control mice ([3]; end of the trial): no notable difference
- Apoptotic cells (cleaved caspase 3 positive) per DAPI positive cells [4]: 1.6%
- Proliferating cells (Ki67 positive) per DAPI positive cells [4]: 2%
- Reduction of tumor cell proliferation vs Veh [4]: 18 fold
- Decrease in apoptosis ([4]; vs Vehicle): 0.4%
- Decrease in cell proliferation ([4]; vs Vehicle): 36%
